# In patent publication US12171834B2, “Compositions and methods for inhibiting the activity of LAR family phosphatases” (CASE WESTERN RESERVE UNIVERSITY, priority 2012, dated 2024):
# Several values for one entry are separate records, joined by “and”; a condition that tells them apart may be missing. Equal entries are not always repeated.
# Assays:
# full length LAR = full length LAR (Homo sapiens, UniProt P10586); assay: pull-down assays, wedge domain with full length LAR; assay type: binding
# PTPσ = PTPσ (Homo sapiens, UniProt Q13332); assay: pull-down assays, wedge domain with PTPσ; assay type: binding
# [1] = tested on: contusive spinal cord injury in adult female Sprague-Dawley rats; assay: urinary behavior in metabolic cages after spinal cord injury; assay type: in vivo, rat
# Description: (§1) This Example describes methods of generating a moderate/severe contusive spinal cord injury with the Infinite Horizon device in adult female Sprague-Dawley rats for spinal cord injury (SCI) assays used in Examples 5-8. Briefly, rats were deeply anesthetized with a cocktail of ketamine/xylazine. Once under, the back was shaved and sterilized with Iodine and ethanol. Using a dorsal entry, the […] vertebrae 7-10 were exposed by a skin incision and at segments 8 and 9 a laminectomy was performed to expose the intact spinal cord. The spinal column and cord were stabilized in a stereotaxic frame prior to contusive impact. Finally, rats underwent a 250 kd Infinite Horizon contusion centered at the midline with no dwell time. Following muscle suturing and skin stapling, the animals were placed on a 37° C. hot pad and allowed ample access to food and water upon awakening from surgery. Pain was monitored, and animals in distress received a low dose of Marcaine at the injection site. Saline and Gentamycin (antibiotic) were given for 5 days post-surgery to prevent bladder infections. This experiment was performed start to finish 3 times. N−=15 ISP, N=11 vehicle and N=6 ILP.
# (§2) Animals were randomly divided into three groups, vehicle control, ISP, or ILP. Lyophilized ISP or ILP peptide was first dissolved in sterile water at a concentration of 2.5 mM. To create individual treatments for each animal, the peptide was further diluted to a concentration of 5 μM in a vehicle solution of 5% DMSO in sterile saline. 25 ml of each treatment (ILP, ISP or vehicle) was alliquoted into 50 individual Eppendorf tubes, each containing 500 μl. The drugs were stored at −20 and thawed immediately prior to use. Each animal received 500 μl of either vehicle, 5 μM ISP or 5 μM ILP subcutaneously into the back above the lesion each day, starting 1 day after injury and lasting 7 weeks (49 treatments, 11 μg/rat/day).
# Animals were placed in metabolic cages overnight for a dark cycle (16 hours). The urine was separated and collected into a syringe linked to a force transducer. The increase in force corresponding to each individual void was plotted in spike-2. The graphs were sampled into excel and manually confirmed to count the total number of voids and the average volume of each void.
# [2] = tested on: adult dissociated dorsal root ganglia neurons on gradients of CSPG; assay: spot assay: processes crossing CSPG (aggrecan) gradient; assay type: cell-based, rat; conditions: for neurons extend processes that cross CSPG gradients: peptide added at time of plating
# Description: Adult female rat sensory dorsal root ganglion (DRG) neurons were obtained and grown on gradients of the chondroitin sulfate proteoglycan aggrecan as previously described. Glass bottom delta-T time-lapse dishes were coated with Poly-L-Lysine (PLL) and incubated at room temperature overnight. Spots were created by dissolving 2 mg/ml aggrecan in calcium and magnesium free hanks balanced salt solution (HBSS). Eight 2 μl dots were placed into one half of each dish and given ample time to dry onto the glass. The dishes were finally coated in 10 μg/ml laminin for 3 hours at 37° C. Following incubation, six thousand adult dissociated DRG neurons were added to each dish in neural basal-A media supplemented with Glutamax, Penn/strep and B27. […] In this Example, the spot assay was conducted on glass coverslips with a few alterations from the technique used for time-lapse microscopy. Following PLL treatment, the coverslips were dried and coated with a small amount of nitrocellulose to increase adhesive interactions needed for spot formation. Following drying of nitrocellulose, 4 spots were dotted onto each coverslip (one in each quadrant) using 700 μg/ml aggrecan, 5 μg/ml laminin dissolved into HBSS. Following drying, the coverslips were coated in 5 μg/ml laminin at 37 degrees C. for 3 hours. 2,000 adult dissociated dorsal root ganglia neurons were added to each coverslip in neural basal-A media supplemented with Glutamax, Penn/strep and B27. In addition, peptides were added at the required concentration at the time of plating. Cells were allowed to grow for 5 days prior to fixation in 4% Paraformaldehyde. These peptides were ordered from Genscript and dissolved in water and stored long-term at −80° C. Peptides were added to media at time of neuronal plating. After 5 days in vitro, the cells were fixed and stained for mouse anti-B3Tubulin (green). The number of processes completely spanning the gradient were counted and normalized to the number of neuronal cell bodies on each individual spot.
# [3] = tested on: contusive spinal cord injury in adult female Sprague-Dawley rats; assay: Basso, Beattie and Bresnahan (BBB) scale for post-SCI locomotion; assay type: in vivo, rat; conditions: for BBB recovery over the course of the next 10 weeks: after 2 weeks post injury; for BBB recovery over the course of the next 10 weeks / average BBB score: 5 μM, 500 μl subcutaneously daily
# Description: as §1, §2
# Animals were allowed to freely roam on a table-top for three minutes while their hindlimb movements and locomotor patterns were being scored by a blinded observer according to the Basso, Beattie and Bresnahan scale for post-SCI locomotion (Basso et al, 1995). Behavior was performed at post injury days 1, 4, 7 and then weekly for 10 additional weeks. Statistical analysis was conducted by repeated measures 2 way Anova.
# [4] = tested on: contusive spinal cord injury in adult female Sprague-Dawley rats; assay: grid-walk test after spinal cord injury; assay type: in vivo, rat; conditions: 12 weeks after spinal cord injury; for foot faults in the grid walk test versus vehicle: vehicle 6 foot-faults per meter
# Description: as §1
# as §2, with “Each animal received 500 μl of either vehicle, 5 μM ISP or 5 μM ILP subcutaneously into the back above the lesion each day, starting 1 day after injury and lasting 7 weeks (49 treatments, 11 μg/rat/day).” left out
# Animals were allowed to freely roam on a wire grid (100 cm×75 cm, with 1 cm^2 gaps in the wire) 12 weeks after spinal cord injury. While an overhead camera tracked and calculated the total distance traveled (Ethovision), the number of foot-faults was counted manually by a blinded observer. […]
# [5] = tested on: 5HT expression in the lumbar spinal cord; assay: 5HT expression (axonal density) in lumbar spinal cord after spinal cord injury; assay type: in vivo, rat
# Description: as §1
# as §2, with “Each animal received 500 μl of either vehicle, 5 μM ISP or 5 μM ILP subcutaneously into the back above the lesion each day, starting 1 day after injury and lasting 7 weeks (49 treatments, 11 μg/rat/day).” left out
# For axonal density analysis, the gray matter was outlined and mean pixel intensity was calculated in ImageJ. […] One section selected randomly every 200 μm was analyzed over a total distance of 2 cm […]. […]
# [6] = tested on: contusive spinal cord injury in adult female Sprague-Dawley rats; assay: recovery beyond vehicle across behaviors after spinal cord injury; assay type: in vivo, rat
# Description: as §1
# Animals were randomly divided into three groups, vehicle control, ISP, or ILP. Lyophilized ISP or ILP peptide was first dissolved in sterile water at a concentration of 2.5 mM. […]
# [7] = tested on: growth cones of adult sensory DRG neurons on gradients of CSPG aggrecan; assay: time-lapse microscopy of growth cone motility in CSPG spot assay; assay type: cell-based, rat; conditions: 4-6 days in vitro
# Description: Adult female rat sensory dorsal root ganglion (DRG) neurons were obtained and grown on gradients of the chondroitin sulfate proteoglycan aggrecan as previously described. Glass bottom delta-T time-lapse dishes were coated with Poly-L-Lysine (PLL) and incubated at room temperature overnight. Spots were created by dissolving 2 mg/ml aggrecan in calcium and magnesium free hanks balanced salt solution (HBSS). Eight 2 μl dots were placed into one half of each dish and given ample time to dry onto the glass. The dishes were finally coated in 10 μg/ml laminin for 3 hours at 37° C. Following incubation, six thousand adult dissociated DRG neurons were added to each dish in neural basal-A media supplemented with Glutamax, Penn/strep and B27. The cells were allowed to grow for 4-6 days Immediately prior to the start of time lapse, the delta T dishes were sealed with a glass coverslip. 100× time-lapse microscopy was performed with a heated objective and heated stage to keep the cells at 37 degrees. Images were obtained every 30 seconds and stitched together to create a time lapse movie. Growth cone and filopodial dynamics were tracked and quantified manually with Metamorph.
# [8] = tested on: contusive spinal cord injury in adult female Sprague-Dawley rats; assay: terminal urodynamic analyses after spinal cord injury; assay type: in vivo, rat; conditions: 14 weeks post injury
# Description: as §1, with “ILP. […]” for “ILP.”
# In a terminal experiment, animals were anesthetized with Urethane at 14 weeks post injury. […] Both muscle activity and pressure (measured through the catheter) were plotted in spike2.
# full length LAR, sequence (P10586 30-1907, species assumed): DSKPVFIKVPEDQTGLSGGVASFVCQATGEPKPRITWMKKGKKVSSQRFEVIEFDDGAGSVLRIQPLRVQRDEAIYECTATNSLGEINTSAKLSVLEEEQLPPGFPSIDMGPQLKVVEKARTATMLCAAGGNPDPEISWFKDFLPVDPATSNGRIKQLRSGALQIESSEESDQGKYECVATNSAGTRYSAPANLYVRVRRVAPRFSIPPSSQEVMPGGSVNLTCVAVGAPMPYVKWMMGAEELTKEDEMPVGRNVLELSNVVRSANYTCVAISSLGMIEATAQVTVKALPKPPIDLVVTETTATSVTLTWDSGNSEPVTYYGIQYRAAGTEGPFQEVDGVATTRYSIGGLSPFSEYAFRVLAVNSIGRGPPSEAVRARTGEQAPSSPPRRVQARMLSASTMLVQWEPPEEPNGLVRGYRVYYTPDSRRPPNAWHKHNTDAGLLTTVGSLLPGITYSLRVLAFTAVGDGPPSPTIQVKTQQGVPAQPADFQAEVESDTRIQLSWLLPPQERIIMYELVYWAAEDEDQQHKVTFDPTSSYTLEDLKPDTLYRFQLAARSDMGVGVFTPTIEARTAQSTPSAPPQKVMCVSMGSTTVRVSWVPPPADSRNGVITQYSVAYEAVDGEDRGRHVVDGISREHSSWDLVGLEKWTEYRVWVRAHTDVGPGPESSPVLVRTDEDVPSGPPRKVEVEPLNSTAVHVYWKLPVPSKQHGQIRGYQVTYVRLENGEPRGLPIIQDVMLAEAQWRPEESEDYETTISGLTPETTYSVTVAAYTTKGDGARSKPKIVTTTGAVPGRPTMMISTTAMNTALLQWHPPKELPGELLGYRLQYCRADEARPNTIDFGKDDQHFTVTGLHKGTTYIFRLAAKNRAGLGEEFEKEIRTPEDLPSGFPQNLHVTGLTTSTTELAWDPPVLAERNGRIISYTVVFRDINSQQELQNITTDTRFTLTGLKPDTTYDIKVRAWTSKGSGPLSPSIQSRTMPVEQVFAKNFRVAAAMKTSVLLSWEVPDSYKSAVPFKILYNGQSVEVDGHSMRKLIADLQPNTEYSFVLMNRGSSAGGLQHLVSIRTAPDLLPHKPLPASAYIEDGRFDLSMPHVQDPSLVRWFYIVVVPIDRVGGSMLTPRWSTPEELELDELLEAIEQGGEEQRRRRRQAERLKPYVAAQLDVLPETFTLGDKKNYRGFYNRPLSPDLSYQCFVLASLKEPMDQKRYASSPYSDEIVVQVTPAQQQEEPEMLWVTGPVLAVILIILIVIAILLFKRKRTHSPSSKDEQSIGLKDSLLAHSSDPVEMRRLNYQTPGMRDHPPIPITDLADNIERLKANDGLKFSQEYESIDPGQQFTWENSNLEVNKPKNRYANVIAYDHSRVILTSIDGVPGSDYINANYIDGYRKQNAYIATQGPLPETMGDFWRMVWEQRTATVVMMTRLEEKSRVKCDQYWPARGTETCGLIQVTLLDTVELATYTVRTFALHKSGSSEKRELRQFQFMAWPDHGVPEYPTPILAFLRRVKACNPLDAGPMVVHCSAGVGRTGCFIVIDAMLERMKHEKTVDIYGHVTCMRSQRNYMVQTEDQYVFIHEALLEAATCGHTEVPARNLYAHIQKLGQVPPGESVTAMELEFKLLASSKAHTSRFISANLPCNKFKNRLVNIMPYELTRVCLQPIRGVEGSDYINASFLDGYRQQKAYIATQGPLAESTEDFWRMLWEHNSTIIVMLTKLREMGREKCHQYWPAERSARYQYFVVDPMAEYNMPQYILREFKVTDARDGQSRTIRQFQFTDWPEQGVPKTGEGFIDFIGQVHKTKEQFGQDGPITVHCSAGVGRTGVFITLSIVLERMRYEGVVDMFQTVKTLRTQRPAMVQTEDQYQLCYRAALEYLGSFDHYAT
# PTPσ, sequence (Q13332 30-1948): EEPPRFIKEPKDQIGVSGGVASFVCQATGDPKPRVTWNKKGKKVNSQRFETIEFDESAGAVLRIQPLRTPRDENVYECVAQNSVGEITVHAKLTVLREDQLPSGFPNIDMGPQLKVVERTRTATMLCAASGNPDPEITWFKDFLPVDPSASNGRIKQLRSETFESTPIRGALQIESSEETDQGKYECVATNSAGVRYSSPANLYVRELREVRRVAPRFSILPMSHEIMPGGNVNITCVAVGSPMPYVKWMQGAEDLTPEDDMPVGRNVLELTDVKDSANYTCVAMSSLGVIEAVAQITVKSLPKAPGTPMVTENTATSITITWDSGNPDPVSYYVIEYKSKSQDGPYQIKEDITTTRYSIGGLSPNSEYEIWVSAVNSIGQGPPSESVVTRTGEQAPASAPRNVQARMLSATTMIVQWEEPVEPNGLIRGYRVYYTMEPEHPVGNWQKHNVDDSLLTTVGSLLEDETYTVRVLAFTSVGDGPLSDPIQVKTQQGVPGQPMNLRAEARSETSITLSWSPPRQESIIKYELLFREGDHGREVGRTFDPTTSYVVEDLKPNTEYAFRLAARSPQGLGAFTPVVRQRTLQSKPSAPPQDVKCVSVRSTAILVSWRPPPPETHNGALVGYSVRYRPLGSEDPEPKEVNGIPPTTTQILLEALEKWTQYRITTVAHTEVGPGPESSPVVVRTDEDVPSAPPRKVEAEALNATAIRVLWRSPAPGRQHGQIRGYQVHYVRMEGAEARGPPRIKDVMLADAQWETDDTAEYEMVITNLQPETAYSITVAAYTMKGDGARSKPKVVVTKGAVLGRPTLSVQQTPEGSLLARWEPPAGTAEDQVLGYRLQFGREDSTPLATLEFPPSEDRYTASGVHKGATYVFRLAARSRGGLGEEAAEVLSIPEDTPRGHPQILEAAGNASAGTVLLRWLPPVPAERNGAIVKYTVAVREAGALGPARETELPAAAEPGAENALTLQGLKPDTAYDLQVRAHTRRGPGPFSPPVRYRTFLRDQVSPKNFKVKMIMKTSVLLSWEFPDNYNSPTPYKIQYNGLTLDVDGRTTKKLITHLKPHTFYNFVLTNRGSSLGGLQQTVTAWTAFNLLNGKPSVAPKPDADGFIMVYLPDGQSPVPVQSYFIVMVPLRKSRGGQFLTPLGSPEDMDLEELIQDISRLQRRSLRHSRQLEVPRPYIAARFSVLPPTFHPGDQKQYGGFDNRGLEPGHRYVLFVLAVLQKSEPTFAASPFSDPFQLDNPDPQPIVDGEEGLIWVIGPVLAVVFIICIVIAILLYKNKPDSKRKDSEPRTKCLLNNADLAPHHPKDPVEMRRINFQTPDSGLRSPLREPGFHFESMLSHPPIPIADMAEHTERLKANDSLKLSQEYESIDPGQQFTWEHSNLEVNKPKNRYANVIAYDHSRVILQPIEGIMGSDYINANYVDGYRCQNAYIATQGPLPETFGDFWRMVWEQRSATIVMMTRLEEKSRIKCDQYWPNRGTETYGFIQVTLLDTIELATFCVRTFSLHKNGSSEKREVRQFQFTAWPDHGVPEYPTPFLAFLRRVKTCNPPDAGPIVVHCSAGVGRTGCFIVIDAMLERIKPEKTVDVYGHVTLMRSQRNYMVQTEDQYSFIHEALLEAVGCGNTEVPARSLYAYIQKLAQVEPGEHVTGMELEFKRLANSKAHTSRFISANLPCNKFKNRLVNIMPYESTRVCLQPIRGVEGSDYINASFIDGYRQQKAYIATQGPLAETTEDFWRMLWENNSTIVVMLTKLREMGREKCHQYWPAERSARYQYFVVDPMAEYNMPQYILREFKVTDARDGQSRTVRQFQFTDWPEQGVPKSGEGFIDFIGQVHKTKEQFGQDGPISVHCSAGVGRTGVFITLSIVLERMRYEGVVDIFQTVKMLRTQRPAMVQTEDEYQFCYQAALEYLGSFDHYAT
substance,measurement,setting,value
"DLADNIERLKANDGLKFSQEYESI (listed as Rattus rattus) [wedge domain of LAR, 24 amino acid wedge-shaped helix-loop-helix motif of LAR used in pull-down assays]",interaction with full length LAR,full length LAR,able to specifically interact with full length LAR
same,binding to sigma,PTPσ,unable to bind to sigma
"NH2GRKKRRQRRRCDLADNIERLKANDGLKFSQEYESI-NH2 (H-GRKKRRQRRRCDLADNIERLKANDGLKFSQEYESI-NH2; listed as Homo sapiens) [ILP, LAR wedge domain peptide conjugated to HIV-TAT]",void frequency (absolute),[1]; naïve animals urinate twice per hour,once every two hours
same,volume/void,[1]; versus naïve animals,significantly increased
same,neurons extend processes that cross CSPG gradients,[2]; 5 days in vitro,also allows neurons to traverse gradients of CSPG
same,BBB recovery over the course of the next 10 weeks,[3],recovered only slightly beyond this point
same,foot faults in the grid walk test versus vehicle,[4],very slight insignificant improvement
NH2GRKKRRQRRRCDMAEHMERLKANDSLKLSQEYESI-NH2 [ISP],recovery of void frequency,[1]; 4 or 8 weeks post injury,no significant recovery
same,void frequency,[1]; 12 weeks post injury,significant increase in void frequency
same,animals reaching naïve micturition frequency,"[1]; rat, in vivo",multiple animals reaching normal (naïve) micturition frequency levels
same,increase of post-injury void frequency on average,[1]; versus vehicle,two fold
same,dose dependence of gradient crossing,[2],dose dependent
same,concentration giving optimal crossing of CSPG gradient,[2]; 5 days in vitro,2.5 μm
same,neurons extend processes that cross CSPG gradients,[2]; 5 days in vitro,allows neurons to extend processes that cross CSPG gradients
same,5HT staining throughout the gray matter,"[5]; 14 weeks following spinal cord injury, lumbar spinal cord",dramatic increase
same,quantified 5HT expression throughout the gray matter,[5]; FIG. 15,significantly increased
same,5HT expression in non-responders,[5]; the two ISP non-responders,did not show a dramatic rise
same,animals with significant behavioral improvements,[6]; greater than two standard deviations better than vehicle mean,13 of 15
same,animals regaining significant function in all three behaviors,"[6]; rat, in vivo",4 animals
same,average BBB score,[3]; 6 weeks,12
same,average BBB score,[3]; 7 weeks,greater than 13
same,BBB recovery over the course of the next 10 weeks,[3],continued to recover
same,BBB score reached by individual animals,[3]; individual animals,19 and 18.5
same,animals that regained at least frequent coordinated stepping,"[3]; rat, in vivo",7 of 15
same,axonal stabilization and over adhesion in time-lapse,[7],prevented axonal stabilization and over adhesion
same,growth cones still motile,[7]; 8% in the control condition,65%
same,coordinated bladder contractions with external urethral sphincter bursting,[8],many animals recovered coordinated bladder contractions with patterned external urethral sphincter bursting
same,foot faults made by several individual animals,[4]; several animals,less than 3 foot faults
same,foot faults in the grid walk test versus vehicle,[4],significantly fewer foot faults
"NH2GRKKRRQRRRCIREDDSLMLYALAQEKKESNMHES-NH2 (H-GRKKRRQRRRCIREDDSLMLYALAQEKKESNMHES-NH2; listed as Homo sapiens) [scrambled ISP-TAT peptide, reference compound]",neurons extend processes that cross CSPG gradients,[2]; 5 days in vitro,Neither vehicle control nor the scrambled ISP-TAT peptide allowed neuronal extensions across the gradient
